# Reference: PMC6713262 (Cell, 2019)
# Where two headings read alike, the source gives them in different places.
# Target: crystallized CB2 construct (CB2-T4L) (Homo sapiens, UniProt P34972, D228Y/G225M/G233N/G304E/G78L/H226L/INS221[…]/INS227[…]/INS235[…]/M234R/R229N/R242E/S224R/T127A/T153L/V231T)
# Assay: Radioligand competition binding with [3H]-CP55,940, crystallized CB2 construct
Molecule,"Effect of construct modifications on binding affinity of CB2 (T4L fusion, five mutations, N/C-terminal truncation, Figure S1F)",Effect of construct modifications on binding affinity of CB2
"Cc1c(C(=O)NC23CC4CC(CC(C4)C2)C3)nn(CCCCCO)c1-c1ccccc1 [AM10257, 1-(5-Hydroxypentyl)-4-methyl-5-phenyl-N-tricyclo[3.3.1.1^3,7]dec-1-yl-1H-pyrazole-3-carboxamide]",little effect,–
SR144528 [reference compound],–,little effect
